From US12600734B2, “Photosensitizing dye” (The University of Tokyo, priority 2020, dated 2026)

Columns and labels:
[1] = protoporphyrin IX generated as a result of metabolizing 5-ALA in the cytoplasm; cited from earlier work
[2] = Absorption spectrum of PS1 and common photosensitizers in DMSO; format: physicochemical
Method: (§1) The absorption maximum of all of the substances was measured in DMSO.
The absorption spectrum of the synthesized PS1 was measured. […] In addition, absorption spectra were measured at different concentrations, and the absorption at a wavelength of 775 nm was then plotted to obtain a molar adsorption coefficient. As a result, the molar adsorption coefficient was 41000 (M^−1 cm^−1) (FIG. 2).

[3] = Singlet oxygen quantum yield (DPBF, light irradiation); format: physicochemical
Method: as §1
The singlet oxygen quantum yield of PS1 was measured. […] This value was higher than the values of conventional photosensitizers, and thus, the usefulness of PS1 for photo dynamic therapy could be expected.

[4] = tested on: EGFR-overexpressing A431 cells; experiment: Immunotoxin plus photochemical internalization (PCI), cell viability (CCK-8); format: cell-based; details: A431, immunotoxin + PCI with the named photosensitizer + NIR
Method: After that, a new medium was added, and irradiation (6.1 mW/cm^2 for 60 min, 22 J/cm^2) with a near infrared light (700 to 1100 nm) was then carried out. Forty-eight hours after the irradiation, CCK-8 was added to the resultant, and the absorption at a wavelength of 450 nm was then measured using a plate reader, so that cell viability was measured (FIG. 8).
Using these photosensitizers, a cell experiment involving the combined use of addition of the immunotoxin and PCI was carried out.

Structure (SMILES)	absorption maximum (λab) [1]	absorption maximum (region) [2]	singlet oxygen quantum yield ([3]; in a buffer aqueous solution (pH 7.4))	photosensitization ability under near infrared light irradiation (reason given for no viability reduction) [4]	singlet oxygen quantum yield ([3]; in DMSO)
NCC(=O)CCC(=O)O [5-ALA, 5-aminolevulinic acid]	405 nm				
CC1(C)C(/C=C/C=C/C=C/C=C2\N(CCCCS(=O)(=O)O)c3ccc4ccccc4c3C2(C)C)=[N+](CCCCS(=O)(=O)[O-])c2ccc3ccccc3c21 [Indocyanine green]		in a near infrared region	0.12	could not release a sufficient amount of singlet oxygen	
[Zn+2].c1ccc2c(c1)-c1nc-2nc2[n-]c(nc3nc([n-]c4nc(n1)-c1ccccc1-4)-c1ccccc1-3)c1ccccc21 [Zinc phthalocyanine]		in a visible light region		photosensitization could not be performed	high
